Columns and labels:
[1] = target: Beta-1 adrenergic receptor (Homo sapiens) (UniProt P08588); conditions: Compound concentration 10.0 uM
[2] = target: Protein kinase C eta type (Homo sapiens) (UniProt P24723); test: PRKCH Invitrogen selectivity data (BI); conditions: Compound concentration 3.0 uM
[3] = target: T1, Activin receptor type-1B (Homo sapiens) (UniProt P36896); test: ACVR1B Invitrogen selectivity data (BI); conditions: Compound concentration 3.0 uM
T1 sequence (whole entry): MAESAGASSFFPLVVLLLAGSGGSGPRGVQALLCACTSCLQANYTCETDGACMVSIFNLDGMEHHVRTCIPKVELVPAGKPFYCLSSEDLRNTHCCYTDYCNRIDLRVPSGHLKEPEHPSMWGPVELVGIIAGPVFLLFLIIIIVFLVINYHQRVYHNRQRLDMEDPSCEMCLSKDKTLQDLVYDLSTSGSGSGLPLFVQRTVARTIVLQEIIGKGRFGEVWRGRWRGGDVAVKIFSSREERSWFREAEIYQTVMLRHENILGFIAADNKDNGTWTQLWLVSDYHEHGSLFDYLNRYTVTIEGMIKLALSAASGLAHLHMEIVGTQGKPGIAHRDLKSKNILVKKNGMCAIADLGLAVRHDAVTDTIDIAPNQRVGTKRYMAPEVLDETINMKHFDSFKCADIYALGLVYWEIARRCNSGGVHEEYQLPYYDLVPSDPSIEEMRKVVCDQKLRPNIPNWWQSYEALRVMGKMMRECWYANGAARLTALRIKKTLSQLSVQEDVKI

[4] = target: Prostaglandin E2 receptor EP2 subtype (Homo sapiens) (UniProt P43116); test: EP2(H) Cerep selectivity data (BI); conditions: filed as agonist, Compound concentration 20.0 uM
[5] = target: Melanin-concentrating hormone receptor 1 (Homo sapiens) (UniProt Q99705); test: MCH1H_AGON Cerep selectivity data (BI); conditions: filed as agonist, Compound concentration 20.0 uM
[6] = target: Sigma non-opioid intracellular receptor 1 (Homo sapiens) (UniProt Q99720); test: SIGMA/NS Cerep selectivity data (BI); conditions: filed as agonist, Compound concentration 20.0 uM
hERG (KCNH2) = hERG (KCNH2) (Homo sapiens, UniProt Q12809); test: K+/HERG Eurofins-Panlabs selectivity data (BI); conditions: compound concentration 10 uM, read-out: % Ctrl
[7] = target: Ephrin type-A receptor 4 (Homo sapiens) (UniProt P54764); test: EPHA4 Invitrogen selectivity data (BI); conditions: Compound concentration 3.0 uM
[8] = target: T2, Tyrosine-protein kinase ZAP-70 (Homo sapiens) (UniProt P43403); test: ZAP70 Invitrogen selectivity data (BI); conditions: Compound concentration 3.0 uM
T2 sequence (whole entry): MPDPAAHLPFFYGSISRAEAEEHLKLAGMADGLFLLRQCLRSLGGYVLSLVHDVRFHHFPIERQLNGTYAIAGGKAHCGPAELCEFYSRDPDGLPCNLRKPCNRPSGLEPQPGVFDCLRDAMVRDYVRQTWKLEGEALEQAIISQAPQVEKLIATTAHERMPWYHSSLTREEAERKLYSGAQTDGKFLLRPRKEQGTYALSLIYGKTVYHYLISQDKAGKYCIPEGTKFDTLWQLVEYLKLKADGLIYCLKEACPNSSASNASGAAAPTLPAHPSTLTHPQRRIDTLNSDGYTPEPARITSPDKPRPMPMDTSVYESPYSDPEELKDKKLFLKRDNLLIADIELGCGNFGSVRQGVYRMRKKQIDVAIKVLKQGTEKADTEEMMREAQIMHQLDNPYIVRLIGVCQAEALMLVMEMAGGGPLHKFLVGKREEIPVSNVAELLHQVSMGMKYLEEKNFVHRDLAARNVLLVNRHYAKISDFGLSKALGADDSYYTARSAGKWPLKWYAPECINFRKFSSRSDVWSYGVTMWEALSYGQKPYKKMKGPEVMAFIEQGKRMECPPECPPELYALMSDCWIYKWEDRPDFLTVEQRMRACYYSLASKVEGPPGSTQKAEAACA

[9] = target: Serine/threonine-protein kinase 24 (Homo sapiens) (UniProt Q9Y6E0); test: STK24 Invitrogen selectivity data (BI); conditions: Compound concentration 3.0 uM
[10] = target: Tyrosine-protein kinase Fes/Fps (Homo sapiens) (UniProt P07332); test: FES Invitrogen selectivity data (BI); conditions: Compound concentration 3.0 uM
[11] = target: T3, Serine/threonine-protein kinase haspin (Homo sapiens) (UniProt Q8TF76); test: GSG2 Invitrogen selectivity data (BI); conditions: Compound concentration 3.0 uM
T3 sequence (whole entry): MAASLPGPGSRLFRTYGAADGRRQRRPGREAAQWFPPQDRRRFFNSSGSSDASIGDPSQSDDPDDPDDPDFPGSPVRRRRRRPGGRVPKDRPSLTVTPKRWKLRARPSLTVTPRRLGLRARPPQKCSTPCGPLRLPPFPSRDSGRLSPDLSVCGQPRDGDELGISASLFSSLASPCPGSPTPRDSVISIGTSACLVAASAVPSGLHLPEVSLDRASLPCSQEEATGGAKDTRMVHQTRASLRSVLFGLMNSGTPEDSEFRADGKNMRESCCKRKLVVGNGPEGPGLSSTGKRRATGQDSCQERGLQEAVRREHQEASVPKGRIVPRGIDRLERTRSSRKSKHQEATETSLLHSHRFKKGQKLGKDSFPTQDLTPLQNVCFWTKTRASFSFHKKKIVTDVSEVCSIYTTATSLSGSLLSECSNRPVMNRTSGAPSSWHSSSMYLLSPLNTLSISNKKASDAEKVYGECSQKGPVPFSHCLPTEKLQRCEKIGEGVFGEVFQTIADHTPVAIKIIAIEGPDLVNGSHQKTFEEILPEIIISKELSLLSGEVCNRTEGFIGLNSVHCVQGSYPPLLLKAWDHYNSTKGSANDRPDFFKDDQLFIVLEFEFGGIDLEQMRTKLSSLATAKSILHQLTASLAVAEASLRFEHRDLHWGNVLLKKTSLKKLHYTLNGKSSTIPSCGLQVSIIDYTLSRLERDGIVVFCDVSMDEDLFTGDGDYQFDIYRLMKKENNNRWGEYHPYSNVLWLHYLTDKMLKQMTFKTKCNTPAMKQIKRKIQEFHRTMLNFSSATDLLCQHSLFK

[12] = target: Serine/threonine-protein kinase PAK 3 (Homo sapiens) (UniProt O75914); test: PAK3 Invitrogen selectivity data (BI); conditions: Compound concentration 3.0 uM
[13] = target: Cannabinoid receptor 2 (Homo sapiens) (UniProt P34972); test: CB2/PERIPH/H Cerep selectivity data (BI); conditions: Compound concentration 20.0 uM

Melanin-concentrating hormone receptor 1 (Homo sapiens), sequence (Q99705 whole entry): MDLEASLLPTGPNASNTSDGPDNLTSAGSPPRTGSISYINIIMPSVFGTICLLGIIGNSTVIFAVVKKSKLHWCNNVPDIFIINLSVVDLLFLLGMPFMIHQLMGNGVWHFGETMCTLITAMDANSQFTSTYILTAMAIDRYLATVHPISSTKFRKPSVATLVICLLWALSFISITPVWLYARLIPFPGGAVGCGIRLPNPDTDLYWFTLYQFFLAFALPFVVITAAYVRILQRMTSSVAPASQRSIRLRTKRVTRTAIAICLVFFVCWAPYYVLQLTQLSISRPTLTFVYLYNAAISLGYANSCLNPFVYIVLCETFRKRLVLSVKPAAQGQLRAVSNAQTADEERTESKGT
Tyrosine-protein kinase Fes/Fps (Homo sapiens), sequence (P07332 whole entry): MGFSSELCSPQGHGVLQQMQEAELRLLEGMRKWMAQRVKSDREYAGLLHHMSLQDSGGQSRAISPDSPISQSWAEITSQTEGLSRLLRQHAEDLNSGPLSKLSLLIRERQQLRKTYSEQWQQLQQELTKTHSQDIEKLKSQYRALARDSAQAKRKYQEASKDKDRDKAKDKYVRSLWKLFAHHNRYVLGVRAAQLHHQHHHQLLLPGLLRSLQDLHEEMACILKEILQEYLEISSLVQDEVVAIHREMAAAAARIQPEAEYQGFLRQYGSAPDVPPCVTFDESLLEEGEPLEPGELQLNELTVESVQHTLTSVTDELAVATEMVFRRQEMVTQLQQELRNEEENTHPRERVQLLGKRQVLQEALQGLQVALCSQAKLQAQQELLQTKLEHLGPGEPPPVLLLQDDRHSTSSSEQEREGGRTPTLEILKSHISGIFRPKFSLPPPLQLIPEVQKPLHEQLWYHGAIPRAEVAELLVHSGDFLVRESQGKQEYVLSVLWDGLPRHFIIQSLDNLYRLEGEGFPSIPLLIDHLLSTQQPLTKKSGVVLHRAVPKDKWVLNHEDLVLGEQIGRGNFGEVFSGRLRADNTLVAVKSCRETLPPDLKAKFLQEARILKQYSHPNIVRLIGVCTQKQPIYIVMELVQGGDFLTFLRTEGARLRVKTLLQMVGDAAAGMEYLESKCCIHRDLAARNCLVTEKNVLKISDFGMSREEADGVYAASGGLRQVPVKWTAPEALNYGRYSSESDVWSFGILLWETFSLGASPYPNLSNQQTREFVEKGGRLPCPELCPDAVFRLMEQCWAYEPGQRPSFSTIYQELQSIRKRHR
hERG (KCNH2), sequence (Q12809 whole entry): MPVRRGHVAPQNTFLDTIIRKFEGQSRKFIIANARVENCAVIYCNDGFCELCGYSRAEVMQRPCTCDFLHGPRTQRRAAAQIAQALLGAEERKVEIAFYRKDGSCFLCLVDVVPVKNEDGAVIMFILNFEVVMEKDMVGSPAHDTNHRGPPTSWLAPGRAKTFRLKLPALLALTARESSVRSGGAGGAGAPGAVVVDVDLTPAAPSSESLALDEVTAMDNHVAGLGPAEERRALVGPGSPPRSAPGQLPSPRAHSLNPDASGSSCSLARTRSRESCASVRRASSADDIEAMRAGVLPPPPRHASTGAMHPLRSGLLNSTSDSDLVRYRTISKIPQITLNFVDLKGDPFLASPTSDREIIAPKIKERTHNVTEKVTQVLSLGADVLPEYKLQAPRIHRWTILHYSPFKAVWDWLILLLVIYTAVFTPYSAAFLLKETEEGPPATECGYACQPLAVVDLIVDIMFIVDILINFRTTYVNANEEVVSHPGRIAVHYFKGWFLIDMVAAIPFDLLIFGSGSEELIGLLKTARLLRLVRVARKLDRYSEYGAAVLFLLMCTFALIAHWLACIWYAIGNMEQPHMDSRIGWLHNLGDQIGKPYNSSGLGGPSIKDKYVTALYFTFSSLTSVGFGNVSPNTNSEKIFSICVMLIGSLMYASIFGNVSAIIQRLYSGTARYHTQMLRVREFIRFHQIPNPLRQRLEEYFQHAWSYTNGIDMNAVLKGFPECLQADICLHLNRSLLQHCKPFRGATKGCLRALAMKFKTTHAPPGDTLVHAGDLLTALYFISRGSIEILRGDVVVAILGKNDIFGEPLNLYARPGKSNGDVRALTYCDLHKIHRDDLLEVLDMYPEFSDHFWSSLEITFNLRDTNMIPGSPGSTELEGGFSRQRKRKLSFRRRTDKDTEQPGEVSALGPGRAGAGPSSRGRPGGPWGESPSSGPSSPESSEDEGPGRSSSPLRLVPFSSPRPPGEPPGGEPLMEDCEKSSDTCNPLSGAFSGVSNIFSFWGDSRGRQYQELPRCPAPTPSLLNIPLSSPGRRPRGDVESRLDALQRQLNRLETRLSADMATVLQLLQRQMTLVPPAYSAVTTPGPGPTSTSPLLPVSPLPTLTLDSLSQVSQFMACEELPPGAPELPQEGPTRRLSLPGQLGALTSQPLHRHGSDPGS
Protein kinase C eta type (Homo sapiens), sequence (P24723 whole entry): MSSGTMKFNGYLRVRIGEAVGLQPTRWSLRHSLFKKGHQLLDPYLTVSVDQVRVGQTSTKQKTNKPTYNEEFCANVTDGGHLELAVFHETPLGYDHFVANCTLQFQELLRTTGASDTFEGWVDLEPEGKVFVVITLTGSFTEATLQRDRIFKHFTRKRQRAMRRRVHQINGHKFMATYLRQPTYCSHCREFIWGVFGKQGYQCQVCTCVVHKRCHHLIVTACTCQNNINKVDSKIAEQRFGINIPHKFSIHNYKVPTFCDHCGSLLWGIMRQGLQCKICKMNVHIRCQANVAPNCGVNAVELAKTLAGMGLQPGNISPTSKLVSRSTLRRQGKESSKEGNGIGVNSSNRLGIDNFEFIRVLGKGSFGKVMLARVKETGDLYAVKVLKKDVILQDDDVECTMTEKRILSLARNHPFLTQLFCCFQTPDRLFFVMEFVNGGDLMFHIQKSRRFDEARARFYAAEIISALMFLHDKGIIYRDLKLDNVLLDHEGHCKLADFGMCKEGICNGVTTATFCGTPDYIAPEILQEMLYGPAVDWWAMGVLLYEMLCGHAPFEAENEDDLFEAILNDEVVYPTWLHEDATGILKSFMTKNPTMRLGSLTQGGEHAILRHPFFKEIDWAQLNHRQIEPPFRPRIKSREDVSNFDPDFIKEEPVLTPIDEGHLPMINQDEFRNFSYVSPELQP
Beta-1 adrenergic receptor (Homo sapiens), sequence (P08588 whole entry, looked up): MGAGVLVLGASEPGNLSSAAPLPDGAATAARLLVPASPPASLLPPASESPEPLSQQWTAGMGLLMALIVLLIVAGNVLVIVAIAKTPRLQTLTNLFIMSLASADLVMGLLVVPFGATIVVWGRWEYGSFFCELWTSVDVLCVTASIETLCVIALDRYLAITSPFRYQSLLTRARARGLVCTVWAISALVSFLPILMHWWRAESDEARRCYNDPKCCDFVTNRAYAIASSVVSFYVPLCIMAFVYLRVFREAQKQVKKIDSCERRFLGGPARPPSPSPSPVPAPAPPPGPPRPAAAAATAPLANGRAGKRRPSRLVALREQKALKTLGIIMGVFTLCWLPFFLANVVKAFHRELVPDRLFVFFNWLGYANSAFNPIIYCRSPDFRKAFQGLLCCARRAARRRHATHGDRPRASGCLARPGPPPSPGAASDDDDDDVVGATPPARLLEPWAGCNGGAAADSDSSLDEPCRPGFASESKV
Ephrin type-A receptor 4 (Homo sapiens), sequence (P54764 whole entry): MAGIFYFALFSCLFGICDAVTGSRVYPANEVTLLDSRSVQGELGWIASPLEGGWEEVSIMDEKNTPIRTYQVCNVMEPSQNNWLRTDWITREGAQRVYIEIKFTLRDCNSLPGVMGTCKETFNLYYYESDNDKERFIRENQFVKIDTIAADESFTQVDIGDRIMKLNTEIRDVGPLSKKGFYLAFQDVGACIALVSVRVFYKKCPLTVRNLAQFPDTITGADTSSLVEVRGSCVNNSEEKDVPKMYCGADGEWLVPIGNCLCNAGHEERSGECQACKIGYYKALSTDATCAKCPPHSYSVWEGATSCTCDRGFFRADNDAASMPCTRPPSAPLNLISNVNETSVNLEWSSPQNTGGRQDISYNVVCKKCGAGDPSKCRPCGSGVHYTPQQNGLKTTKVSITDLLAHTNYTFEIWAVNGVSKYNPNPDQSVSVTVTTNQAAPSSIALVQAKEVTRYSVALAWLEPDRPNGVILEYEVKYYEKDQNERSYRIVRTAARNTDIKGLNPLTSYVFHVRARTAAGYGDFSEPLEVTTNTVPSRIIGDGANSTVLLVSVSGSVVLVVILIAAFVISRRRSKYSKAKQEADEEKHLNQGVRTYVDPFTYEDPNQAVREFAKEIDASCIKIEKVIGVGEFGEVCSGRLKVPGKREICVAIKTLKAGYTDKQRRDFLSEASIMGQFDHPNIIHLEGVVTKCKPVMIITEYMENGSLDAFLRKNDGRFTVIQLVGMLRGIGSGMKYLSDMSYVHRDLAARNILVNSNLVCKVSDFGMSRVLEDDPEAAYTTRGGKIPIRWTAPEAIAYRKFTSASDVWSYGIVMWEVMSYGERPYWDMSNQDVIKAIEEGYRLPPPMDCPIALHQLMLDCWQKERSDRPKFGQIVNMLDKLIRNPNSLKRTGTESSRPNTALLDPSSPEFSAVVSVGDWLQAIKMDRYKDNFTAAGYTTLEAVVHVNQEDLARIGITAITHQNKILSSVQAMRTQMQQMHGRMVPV
Sigma non-opioid intracellular receptor 1 (Homo sapiens), sequence (Q99720 whole entry): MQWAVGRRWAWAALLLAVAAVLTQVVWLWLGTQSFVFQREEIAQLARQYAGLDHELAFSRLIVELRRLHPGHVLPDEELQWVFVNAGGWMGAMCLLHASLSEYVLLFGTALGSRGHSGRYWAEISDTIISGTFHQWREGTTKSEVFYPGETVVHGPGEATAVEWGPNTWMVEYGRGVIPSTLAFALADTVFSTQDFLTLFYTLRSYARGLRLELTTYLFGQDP

| SMILES | inhibition [1] [%] | residual activity [2] [%] | residual activity [3] [%] | residual activity [4] [%] | residual activity [5] [%] | residual activity [6] [%] | activity at 10 µM (hERG (KCNH2)) | residual activity [7] [%] | residual activity [8] [%] | residual activity [9] [%] | residual activity [10] [%] | residual activity [11] [%] | residual activity [12] [%] | residual activity [13] [%] |
| --- | --- | --- | --- | --- | --- | --- | --- | --- | --- | --- | --- | --- | --- | --- |
| CN(C)C(=O)Cn1cc(-c2nc(C3(c4ccc(-c5cnc(N)nc5)cc4)CC3)no2)cn1 [BI 0153] | 7.58 | – | – | – | – | – | – | – | – | – | – | – | – | – |
| CN(C)C(=O)Cn1cc(-c2nc([C@@](C)(c3ccc(-c4cnc(N)nc4)cc3)C3CC3)no2)cn1 [BI 665915] | – | 86 | 104 | 97 | 116 | 99 | 90% (not active) | 95 | 96 | 100 | 94.5 | 100 | 94.5 | 93 |

From ChEMBL document CHEMBL4507276 (2021)
